Source: ChEMBL document CHEMBL6115026, “Synthesis and Biological Evaluation of Peripheral 5HT2B Antagonists for Liver Fibrosis” (J Med Chem, 2025)

Assays:
[1] = molecular target: T1, 5-hydroxytryptamine receptor 2B (Homo sapiens, UniProt P41595); test: Antagonist activity at 5HT2B (unknown origin) expressed in FRT cells co-expressing ANO1 and YFP assessed as inhibition of 5HT-induced increase in iodide influx at 1 uM preincubated with compound for 10 mins followed by 5-HT addition and measured after 8 sec by YFP fluorescence quenching analysis relative to control; assay type: cell-based; conditions: time 608.0 sec
T1 sequence (P41595 whole entry): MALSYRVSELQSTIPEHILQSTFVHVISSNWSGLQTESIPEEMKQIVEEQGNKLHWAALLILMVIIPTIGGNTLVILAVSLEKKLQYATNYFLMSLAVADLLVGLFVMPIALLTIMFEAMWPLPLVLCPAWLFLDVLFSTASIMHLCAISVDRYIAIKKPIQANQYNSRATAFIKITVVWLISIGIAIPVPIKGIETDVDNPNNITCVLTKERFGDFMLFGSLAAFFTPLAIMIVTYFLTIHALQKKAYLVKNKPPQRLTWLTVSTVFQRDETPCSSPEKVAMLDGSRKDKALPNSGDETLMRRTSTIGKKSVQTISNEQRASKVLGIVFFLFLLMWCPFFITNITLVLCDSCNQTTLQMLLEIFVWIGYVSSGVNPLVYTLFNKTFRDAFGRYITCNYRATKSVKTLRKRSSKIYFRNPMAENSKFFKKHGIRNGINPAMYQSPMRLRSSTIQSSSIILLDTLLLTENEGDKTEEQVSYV

[2] = molecular target: T1, 5-hydroxytryptamine receptor 2B; test: Antagonist activity at 5HT2B (unknown origin) expressed in FRT cells co-expressing ANO1 and YFP assessed as inhibition of 5HT-induced increase in iodide influx preincubated with compound for 10 mins followed by 5-HT addition and measured after 8 sec by YFP fluorescence quenching analysis; assay type: cell-based
[3] = molecular target: T1, 5-hydroxytryptamine receptor 2B; test: Binding affinity to 5-HT2B (unknown origin)
[4] = molecular target: T1, 5-hydroxytryptamine receptor 2B; test: Binding affinity to 5-HT2B (unknown origin) assessed as inhibition constant by receptor binding assay

SMILES	inhibition ([1]; filed as antagonist) [%]	other results
COc1ccc(S(=O)(=O)NC2CCN(C(=O)OC(C)(C)C)CC2)cc1C(=O)Nc1ccccc1Cl	47.1	
O=C(c1ccc(-c2ccccc2)cc1)N1CCC(c2cc3ccccc3[nH]2)CC1		IC50 [3]: 2.4 nM
COc1ccc(S(=O)(=O)N[C@H]2CCOC2)cc1C(=O)Nc1ccccc1N1CCN(C(=O)OC(C)(C)C)CC1		inhibition [1]: 1.64%
NCC(=O)NCCN1CCN(CCCN2c3ccccc3Sc3ccc(C(F)(F)F)cc32)CC1		Ki [4]: 5.2 nM
COc1ccc(S(=O)(=O)NC2CCNCC2)cc1C(=O)Nc1ccccc1Cl	96.3	
COc1ccc(S(=O)(=O)N[C@H]2CCOC2)cc1C(=O)Nc1ccccc1NC(=O)OC(C)(C)C		inhibition [1]: 20.1%

Continued, in another order:

inhibition ([1]; filed as antagonist) [%]	SMILES	other results
94.5	COc1ccc(S(=O)(=O)N[C@H]2CCN(C(=O)[C@@H](N)CCC(=O)O)C2)cc1C(=O)Nc1ccccc1Cl	IC50 [2]: 7.22 nM
94.3	COc1ccc(S(=O)(=O)N[C@H]2CCN(C(=O)[C@@H](N)CC(=O)O)C2)cc1C(=O)Nc1ccccc1Cl	IC50 [2]: 80.7 nM
97.8	COc1ccc(S(=O)(=O)N[C@@H]2CCNC2)cc1C(=O)Nc1ccccc1Cl	
100	COc1ccc(S(=O)(=O)N[C@@H]2CCN(C(=O)C[C@H](N)C(=O)O)C2)cc1C(=O)Nc1ccccc1Cl	
